Results from patent US20250380702A1, “HERBICIDAL MIXTURES COMPRISING L-GLUFOSINATE OR ITS SALT AND A SECOND HERBICIDE” (BASF SE, priority 2022, published 2025).
“And” between values parts separate entries of the source, which are not always exact repeats. Equal values may be shown once. Read-outs that look alike come from different tables or passages of the source.

Experiments:
Experiment in all cases: Greenhouse post emergence treatment, herbicidal activity
KCHSC = format: in vivo, Bassia scoparia; settings: for % activity: solo application, post emergence, 7 DAT
From the text: (§1) Synergism can be described as an interaction where the combined effect of two or more compounds is greater than the sum of the individual effects of each of the compounds. The presence of a synergistic effect in terms of percent control, between two mixing partners (X and Y) can be calculated using the Colby equation (Colby, S. R., 1967, Calculating Synergistic and Antagonistic Responses in Herbicide Combinations, Weeds, 15, 21-22):
(§2) When the observed combined control effect is greater than the expected (calculated) combined control effect (E), then the combined effect is synergistic.
(§3) The culture containers used were plastic flowerpots containing loamy sand with approximately 3.0% of humus as the substrate. The seeds of the test plants were sown separately for each species and/or resistant biotype. For the pre-emergence treatment, the active ingredients, which had been suspended or emulsified in water, were applied directly after sowing by means of finely distributing nozzles. The containers were irrigated gently to promote germination and growth and subsequently covered with transparent plastic hoods until the plants had rooted. This cover caused uniform germination of the test plants, unless this had been impaired by the active ingredients. For the post-emergence treatment, the test plants were first grown to a height of 3 to 15 cm, depending on the plant habit, and only then treated with the active ingredients which had been suspended or emulsified in water. For this purpose, the test plants were either sown directly and grown in the same containers, or they were first grown separately as seedlings and transplanted into the test containers a few days prior to treatment. Depending on the species, the plants were kept at 10-25° C. or 20-35° C., respectively. The test period extended to 20 days after treatment. During this time, the plants were tended, and their response to the individual treatments was evaluated. The evaluation was carried out by using a scale from 0 to 100. 100 means no emergence of the plants or complete destruction of at least the above-ground parts, and 0 means no damage, or normal course of growth.
(§4) As indicated in the respective examples, assessment was either after 7 days or 20 days after treatment (DAT).

AVEFA = format: in vivo, Avena fatua; settings: solo application, 7 DAT
From the text: as §1, §2, §3, §4

ABUTH = format: in vivo, Abutilon theophrasti; settings: solo application; for inhibition at 250 g/ha: Abutilon theophrasti, 250 gai/ha
From the text: as §1, §2, §3, §4

Volunteer HORVS = format: in vivo, Volunteer Barley; settings: for % activity: solo application, post emergence
From the text: as §1, §2, §3, §4

CHEAL = format: in vivo, Chenopodium album; settings: solo application, 7 DAT
From the text: as §1, §2, §3, §4

POLAV = format: in vivo, Polygonum aviculare; settings: solo application, 7 DAT
From the text: as §1, §2, §3, §4

[1] = Bassia scoparia, post-emergence, 168 h, read-out: % activity

Question: Which inhibition at 250 g/ha (KCHSC; [1]) does the source give for `CP(=O)(O)CC[C@H](N)C(=O)O.N` [L-Glu, ammonium (2S)-2-amino-4-(methylphosphinato) butyric acid] here?
Answer: Its inhibition at 250 g/ha is 88%.

Question: And the inhibition at 500 g/ha (KCHSC; [1])?
Answer: The inhibition at 500 g/ha was 88%.

Question: What about the inhibition at 1000 g/ha (KCHSC; [1]) of the same molecule?
Answer: Its inhibition at 1000 g/ha is 90%.

Question: And the inhibition at 500 g/ha (AVEFA; Avena fatua, 168 h, 500 gai/ha)?
Answer: Its inhibition at 500 g/ha is 90%.

Question: What about the inhibition at 1000 g/ha (AVEFA; Avena fatua, 168 h, 1000 gai/ha) of the same molecule?
Answer: Its inhibition at 1000 g/ha is 90%.

Question: And the inhibition at 250 g/ha (ABUTH; 168 h, 7 DAT)?
Answer: Its inhibition at 250 g/ha is 75%.

Question: What about the inhibition at 250 g/ha (ABUTH; 480 h, 20 DAT) of the same molecule?
Answer: Its inhibition at 250 g/ha is 60%.

Question: And the inhibition at 125 g/ha (Volunteer HORVS; Hordeum vulgare, post-emergence, 168 h, read-out: % activity, solo application, 125 gai/ha, post emergence, 7 DAT)?
Answer: Its inhibition at 125 g/ha is 90%.

Question: What about the inhibition at 250 g/ha (Volunteer HORVS; Hordeum vulgare, post-emergence, 168 h, read-out: % activity, solo application, 250 gai/ha, post emergence, 7 DAT) of the same molecule?
Answer: The inhibition at 250 g/ha was 90%.

Question: What about the inhibition at 500 g/ha (Volunteer HORVS; Hordeum vulgare, post-emergence, 168 h, read-out: % activity, solo application, 500 gai/ha, post emergence, 7 DAT) of the same molecule?
Answer: Its inhibition at 500 g/ha is 95%.

Question: And the inhibition at 250 g/ha (Volunteer HORVS; Hordeum vulgare, post-emergence, 480 h, read-out: % activity, solo application, 250 gai/ha, post emergence, 20 DAT)?
Answer: The inhibition at 250 g/ha was 75%.

Question: And the inhibition at 500 g/ha (Volunteer HORVS; Hordeum vulgare, post-emergence, 480 h, read-out: % activity, solo application, 500 gai/ha, post emergence, 20 DAT)?
Answer: Its inhibition at 500 g/ha is 85%.

Question: And the “% activity” value (Volunteer HORVS; 125 gai/ha, 20 DAT)?
Answer: The value was 65% and 35%.

Question: What about the inhibition at 500 g/ha (CHEAL; Chenopodium album, 168 h, 500 gai/ha) of the same molecule?
Answer: Its inhibition at 500 g/ha is 95%.

Question: What about the inhibition at 1000 g/ha (CHEAL; Chenopodium album, 168 h, 1000 gai/ha) of the same molecule?
Answer: The inhibition at 1000 g/ha was 95%.

Question: And the inhibition at 500 g/ha (POLAV; Polygonum aviculare, 168 h, 500 gai/ha)?
Answer: Its inhibition at 500 g/ha is 95%.

Question: And the inhibition at 1000 g/ha (POLAV; Polygonum aviculare, 168 h, 1000 gai/ha)?
Answer: Its inhibition at 1000 g/ha is 95%.

Question: For `CN1C[C@H](c2cccc(C(F)(F)F)c2)[C@@H](C(=O)Nc2ccccc2F)C1=O` [Tetflupyrolimet], which “% activity” value (KCHSC; 25 gai/ha) is on record?
Answer: The value was 0%.

Question: And the “% activity” value (KCHSC; 50 gai/ha)?
Answer: Its value is 0%.

Question: What about the “% activity” value (KCHSC; 100 gai/ha) of the same molecule?
Answer: The value was 2.5%.

Question: And the “% activity” value (AVEFA; 50 gai/ha)?
Answer: Its value is 0%.

Question: What about the “% activity” value (AVEFA; 100 gai/ha) of the same molecule?
Answer: The value was 0%.

Question: What about the “% activity” value (ABUTH; 25 gai/ha, 7 DAT) of the same molecule?
Answer: The value was 0%.

Question: And the “% activity” value (ABUTH; 25 gai/ha, 20 DAT)?
Answer: Its value is 0%.

Question: And the “% activity” value (ABUTH; 100 gai/ha, 7 DAT)?
Answer: The value was 0%.

Question: What about the “% activity” value (ABUTH; 100 gai/ha, 20 DAT) of the same molecule?
Answer: The value was 0%.

Question: And the “% activity” value (Volunteer HORVS; 12.5 gai/ha, 7 DAT)?
Answer: The value was 0%.

Question: What about the “% activity” value (Volunteer HORVS; 12.5 gai/ha, 20 DAT) of the same molecule?
Answer: The value was 5% and 0%.

Question: What about the “% activity” value (Volunteer HORVS; 25 gai/ha, 7 DAT) of the same molecule?
Answer: The value was 0%.

Question: And the “% activity” value (Volunteer HORVS; 25 gai/ha, 20 DAT)?
Answer: Its value is 5%.

Question: What about the “% activity” value (Volunteer HORVS; 50 gai/ha, 7 DAT) of the same molecule?
Answer: Its value is 0%.

Question: What about the “% activity” value (Volunteer HORVS; 50 gai/ha, 20 DAT) of the same molecule?
Answer: Its value is 5%.

Question: And the “% activity” value (Volunteer HORVS; 100 gai/ha, 7 DAT)?
Answer: Its value is 5%.

Question: And the “% activity” value (CHEAL; 50 gai/ha)?
Answer: The value was 15%.

Question: And the “% activity” value (CHEAL; 100 gai/ha)?
Answer: The value was 25%.

Question: And the “% activity” value (POLAV; 50 gai/ha)?
Answer: Its value is 5%.

Question: And the “% activity” value (POLAV; 100 gai/ha)?
Answer: The value was 5%.
